What was measured:
Assay type in all cases: in vivo
[1] = system: broad-leaf weeds and grass weeds; experiment: General screening of herbicidal activity in greenhouse; conditions: 1000 g a.i./hm^2;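 note: 0 means no visible effect and 100 means all weeds dead or not emerged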
Outline: (§1)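 Pre- and post-emergence greenhouse test. Track sprayer, 500 L/hm^2, 1.95 kg/cm^2; EC formulation. Post-em at 2–3 leaves (grass), 2–4 leaves (broad-leaf). Readout: visual % inhibition.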

[2] = system: Abutilon theophrasti Medic.; experiment: Bioassay of herbicidal activity in greenhouse (further screening)
Outline: as §1

[3] = system: Echinochloa crus-galli (L.) Beauv.; experiment: as above
Outline: as §1

Zinnia elegans Jacq. = experiment: as above
Outline: as §1

[4] = system: Setaria glauca (L.) Beauv.; experiment: as above
Outline: as §1

| SMILES | pre-emergence and post-emergence herbicidal activity against broad-leaf weeds and grass weeds [1] | Growth inhibition rate, Post-emergence treatment, Abutilon theophrasti Medic. ([2]; dose 37.5 g a.i./hm^2) | Growth inhibition rate, Post-emergence treatment, Abutilon theophrasti Medic. ([2]; dose 150 g a.i./hm^2) | Growth inhibition rate, Post-emergence treatment, Abutilon theophrasti Medic. ([2]; dose 600 g a.i./hm^2) | Growth inhibition rate, Pre-emergence treatment, Abutilon theophrasti Medic. ([2]; dose 37.5 g a.i./hm^2) | Growth inhibition rate, Pre-emergence treatment, Abutilon theophrasti Medic. ([2]; dose 150 g a.i./hm^2) | Growth inhibition rate, Pre-emergence treatment, Abutilon theophrasti Medic. ([2]; dose 600 g a.i./hm^2) | Growth inhibition rate, Post-emergence treatment, Echinochloa crus-galli (L.) Beauv. ([3]; dose 37.5 g a.i./hm^2) | Growth inhibition rate, Post-emergence treatment, Echinochloa crus-galli (L.) Beauv. ([3]; dose 150 g a.i./hm^2) | Growth inhibition rate, Post-emergence treatment, Echinochloa crus-galli (L.) Beauv. ([3]; dose 600 g a.i./hm^2) | Growth inhibition rate, Pre-emergence treatment, Echinochloa crus-galli (L.) Beauv. ([3]; dose 37.5 g a.i./hm^2) | Growth inhibition rate, Pre-emergence treatment, Echinochloa crus-galli (L.) Beauv. ([3]; dose 150 g a.i./hm^2) | Growth inhibition rate, Pre-emergence treatment, Echinochloa crus-galli (L.) Beauv. ([3]; dose 600 g a.i./hm^2) | Growth inhibition rate, Post-emergence treatment, Zinnia elegans Jacq. (Zinnia elegans Jacq.; dose 37.5 g a.i./hm^2) | Growth inhibition rate, Post-emergence treatment, Zinnia elegans Jacq. (Zinnia elegans Jacq.; dose 150 g a.i./hm^2) | Growth inhibition rate, Post-emergence treatment, Zinnia elegans Jacq. (Zinnia elegans Jacq.; dose 600 g a.i./hm^2) | Growth inhibition rate, Pre-emergence treatment, Zinnia elegans Jacq. (Zinnia elegans Jacq.; dose 37.5 g a.i./hm^2) | Growth inhibition rate, Pre-emergence treatment, Zinnia elegans Jacq. (Zinnia elegans Jacq.; dose 150 g a.i./hm^2) | Growth inhibition rate, Pre-emergence treatment, Zinnia elegans Jacq. (Zinnia elegans Jacq.; dose 600 g a.i./hm^2) | Growth inhibition rate, Post-emergence treatment, Setaria glauca (L.) Beauv. ([4]; dose 37.5 g a.i./hm^2) | also measured |
| --- | --- | --- | --- | --- | --- | --- | --- | --- | --- | --- | --- | --- | --- | --- | --- | --- | --- | --- | --- | --- | --- |
| CCCCOC(=O)C1(C)CC(c2cc(-n3c(=O)cc(C(F)(F)F)n(C)c3=O)ccc2Cl)=NO1 (stereo not drawn) [Compound 286] | good | 90% | 100% | 100% | 0% | 0% | 15% | 20% | 60% | 75% | 0% | 5% | 15% | 85% | 100% | 100% | 0% | 0% | 10% | 15% | Growth inhibition rate, Post-emergence treatment, Setaria glauca (L.) Beauv. ([4]; dose 150 g a.i./hm^2): 70%; Growth inhibition rate, Post-emergence treatment, Setaria glauca (L.) Beauv. ([4]; dose 600 g a.i./hm^2): 75%; Growth inhibition rate, Pre-emergence treatment, Setaria glauca (L.) Beauv. ([4]; dose 37.5 g a.i./hm^2): 0%; Growth inhibition rate, Pre-emergence treatment, Setaria glauca (L.) Beauv. ([4]; dose 150 g a.i./hm^2): 10%; Growth inhibition rate, Pre-emergence treatment, Setaria glauca (L.) Beauv. ([4]; dose 600 g a.i./hm^2): 30% |
| Cn1c(C(F)(F)F)cc(=O)n(-c2cc(C3=NOC(C)(C(=O)O)C3)c(Cl)cc2F)c1=O (stereo not drawn) [Compound 4] | good | 50% | 98% | 98% | 10% | 15% | 40% | 15% | 25% | 85% | 0% | 0% | 10% | 95% | 100% | 100% | 0% | 5% | 20% | 20% | Growth inhibition rate, Post-emergence treatment, Setaria glauca (L.) Beauv. ([4]; dose 150 g a.i./hm^2): 70%; Growth inhibition rate, Post-emergence treatment, Setaria glauca (L.) Beauv. ([4]; dose 600 g a.i./hm^2): 100%; Growth inhibition rate, Pre-emergence treatment, Setaria glauca (L.) Beauv. ([4]; dose 37.5 g a.i./hm^2): 0%; Growth inhibition rate, Pre-emergence treatment, Setaria glauca (L.) Beauv. ([4]; dose 150 g a.i./hm^2): 5%; Growth inhibition rate, Pre-emergence treatment, Setaria glauca (L.) Beauv. ([4]; dose 600 g a.i./hm^2): 30% |
| Cn1c(C(F)(F)F)cc(=O)n(-c2cc(C3=NOC(C)(COC(=O)CCl)C3)c(Cl)cc2F)c1=O (stereo not drawn) [Compound 50] | good | 100% | 100% | 100% | 0% | 35% | 100% | 10% | 30% | 80% | 0% | 10% | 80% | 98% | 100% | 100% | 0% | 30% | 90% | 15% | Growth inhibition rate, Post-emergence treatment, Setaria glauca (L.) Beauv. ([4]; dose 150 g a.i./hm^2): 65%; Growth inhibition rate, Post-emergence treatment, Setaria glauca (L.) Beauv. ([4]; dose 600 g a.i./hm^2): 98%; Growth inhibition rate, Pre-emergence treatment, Setaria glauca (L.) Beauv. ([4]; dose 37.5 g a.i./hm^2): 0%; Growth inhibition rate, Pre-emergence treatment, Setaria glauca (L.) Beauv. ([4]; dose 150 g a.i./hm^2): 30%; Growth inhibition rate, Pre-emergence treatment, Setaria glauca (L.) Beauv. ([4]; dose 600 g a.i./hm^2): 90% |
| COC(=O)C1(C)CC(c2cc(-n3c(=O)cc(C(F)(F)F)n(C)c3=O)c(F)cc2Cl)=NO1 (stereo not drawn) [Compound 5] | good |  |  |  |  |  |  |  |  |  |  |  |  |  |  |  |  |  |  |  | Growth inhibition rate, Post-emergence treatment, Abutilon theophrasti Medic. ([2]; dose 7.5 g a.i./hm^2): 100%; Growth inhibition rate, Post-emergence treatment, Abutilon theophrasti Medic. ([2]; dose 15 g a.i./hm^2): 100%; Growth inhibition rate, Post-emergence treatment, Abutilon theophrasti Medic. ([2]; dose 30.0 g a.i./hm^2): 100%; Growth inhibition rate, Post-emergence treatment, Abutilon theophrasti Medic. ([2]; dose 60.0 g a.i./hm^2): 100%; Growth inhibition rate, Post-emergence treatment, Abutilon theophrasti Medic. ([2]; dose 120.0 g a.i./hm^2): 100%; Growth inhibition rate, Post-emergence treatment, Echinochloa crus-galli (L.) Beauv. ([3]; dose 7.5 g a.i./hm^2): 45%; Growth inhibition rate, Post-emergence treatment, Echinochloa crus-galli (L.) Beauv. ([3]; dose 15 g a.i./hm^2): 95%; Growth inhibition rate, Post-emergence treatment, Echinochloa crus-galli (L.) Beauv. ([3]; dose 30.0 g a.i./hm^2): 100%; Growth inhibition rate, Post-emergence treatment, Echinochloa crus-galli (L.) Beauv. ([3]; dose 60.0 g a.i./hm^2): 100%; Growth inhibition rate, Post-emergence treatment, Echinochloa crus-galli (L.) Beauv. ([3]; dose 120.0 g a.i./hm^2): 100%; Growth inhibition rate, Post-emergence treatment, Zinnia elegans Jacq. (Zinnia elegans Jacq.; dose 7.5 g a.i./hm^2): 40%; Growth inhibition rate, Post-emergence treatment, Zinnia elegans Jacq. (Zinnia elegans Jacq.; dose 15 g a.i./hm^2): 45%; Growth inhibition rate, Post-emergence treatment, Zinnia elegans Jacq. (Zinnia elegans Jacq.; dose 30.0 g a.i./hm^2): 98%; Growth inhibition rate, Post-emergence treatment, Zinnia elegans Jacq. (Zinnia elegans Jacq.; dose 60.0 g a.i./hm^2): 100%; Growth inhibition rate, Post-emergence treatment, Zinnia elegans Jacq. (Zinnia elegans Jacq.; dose 120.0 g a.i./hm^2): 100%; Growth inhibition rate, Post-emergence treatment, Setaria glauca (L.) Beauv. ([4]; dose 7.5 g a.i./hm^2): 60%; Growth inhibition rate, Post-emergence treatment, Setaria glauca (L.) Beauv. ([4]; dose 15 g a.i./hm^2): 65%; Growth inhibition rate, Post-emergence treatment, Setaria glauca (L.) Beauv. ([4]; dose 30.0 g a.i./hm^2): 100%; Growth inhibition rate, Post-emergence treatment, Setaria glauca (L.) Beauv. ([4]; dose 60.0 g a.i./hm^2): 100%; Growth inhibition rate, Post-emergence treatment, Setaria glauca (L.) Beauv. ([4]; dose 120.0 g a.i./hm^2): 100% |

Reference: patent publication US10550111B2, “Pyrimidine urea compound containing isoxazolines and use thereof” (SHENYANG SINOCHEM AGROCHEMICALS R&D CO., LTD, priority 2014, dated 2020)
